Laboratory results published in US20250057808A1, “COMPOSITION COMPRISING BETA LACTAM FOR TREATING ALCOHOL DEPENDENCE AND ALCOHOL ASSOCIATED DISEASES OR CONDITIONS” (Temple University of the Commonwealth System of Higher …, priority 2023, published 2025).
“Also recorded” adds a separate entry of the source.

How the values were obtained:
[1] = Ethanol-intake model (section C); type: in vivo, Male P rats
Description: Male P rats were obtained from Indiana University School of Medicine (Indianapolis, IN, USA). P rats were ˜90 days old at the beginning of the drinking paradigms. P rats were used in this study as they fit the necessary criteria of ethanol preference. P rats may consume freely ethanol (15% and 30%, v/v) and achieve a pharmacologically blood alcohol concentration (BACs) of 50-200 mg % as shown in previous studies from Indiana University. Rats were housed in a room kept at 21° C. on a 12/12-hour light/dark cycle and had free access to water and food. All experimental procedures were approved by the Institutional Animal Care and Use Committee (IACUC) at University of Toledo under protocol #400160, in accordance with all guidelines of IACUC of the National Institute of Health, and the Guide for the Care and Use of Laboratory Animals.
Rats were assigned to three groups prior to the start of the experiments based on their weights, and the average weights of each group were similar between all groups. Male P rats were divided into three groups: a) Control/water group was exposed to water for five weeks and received saline vehicle injection (i.p.) every 24 hours during Week 6 for a total of five days; b) Ethanol/saline group was exposed to free choice of ethanol (15% and 30%, v/v) as well as water for 5 weeks and received saline vehicle (i.p.) every 24 hours during Week 6 for a total of five days; c) Ethanol/MC-100093 group was exposed to free choice of ethanol (15% and 30%, v/v) as well as water for 5 weeks and received MC-100093 (100 mg/kg, i.p.) every 24 hours during Week 6 for 5 days (FIG. 16). […]
The baseline was calculated by taking the average of the prior 5 weeks of water and ethanol consumption as rat weight. […] As weights of the bottles were recorded, the measurements were converted using g of ethanol intake/kg of body weight/day formula to determine ethanol consumption in g/kg of body weight. […]
Statistical analyses were performed using GraphPad Prism Version 10. […] Statistical significance was determined by a p-value of or less than 0.05.

xCT = assay: Immunoblot xCT in mPFC-IL, mPFC-PL, NAc-core, NAc-shell (section B); type: in vivo, Male and female alcohol-preferring (P) rats; conditions: 100 mg/kg i.p. 5 days
Description: After 24 hours of receiving the last injection, rats were euthanized by CO2 inhalation followed by decapitation with a guillotine. Brains were harvested and immediately frozen on dry ice and stored at −80° C. Cryostat (Leica) was used to isolate the mPFC subregions (mPFC-IL and mPFC-PL), and subregions of the NAc (NAc-core and NAc-shell). Brains were micro-punctured using the stereotaxic coordinates following the Rat Brain Atlas. The isolated brain regions were stored at −80° C. for subsequent protein detection using Western Blot assay.
Immunoblot assays were performed to determine the expression of GLT-1, xCT and β-tubulin in mPFC-IL, mPFC-PL, NAc-core, and NAc-shell of all groups as described previously. Briefly, brain samples were homogenized in lysis buffer supplemented with protease inhibitor and total protein was quantified using protein assay (Bio-Rad, Hercules, CA, USA). Equal amount of the samples was loaded on polyacrylamide gel (10-20%).
Subsequently, proteins were transferred on a PVDF membrane and blocked with 5% milk in Tris-buffered saline Tween-20 (1×TBST) for 30 minutes at room temperature. Membranes were then incubated overnight at 4° C. with one of the following antibodies: rabbit anti-GLT-1 (1:1000, Abcam, AB41621), and/or rabbit anti-xCT (1:1000, Abcam, AB175186). Mouse anti-β-tubulin (1:1000; Cell Signaling D71G5) was used as a loading control antibody. On the following day, membranes were washed five times with 1×TBST followed by incubation with appropriate secondary antibody (1:4000) for 60 minutes at room temperature. Chemiluminescent reagents (Super Signal West Pico, Pierce Inc.) were used to detect proteins using a ChemiDoc imaging system (BioRad, USA).
GLT-1 and xCT expression were normalized against β-tubulin, a control loading protein. Imaging System and ImageJ software version 1.53a were used to quantify and analyze the expression of GLT-1 and xCT in the subregions of the mPFC and NAc. Data from water-control group were represented as 100% and all other values were expressed relative to this control to evaluate the changes in protein expression.
The ratios for treated animals in the ethanol/saline and ethanol/MC-100093 groups were normalized to the mean ratios for the control group (water/saline group). The control ratio was set at 100, and the results from each of the treated groups were expressed as a percentage relative to the water/saline group value of 100%. We normalized the ethanol/saline and ethanol/MC-100093 groups data to water/saline group to reduce any differences of contrast with Western blots for each set of groups (control/water/saline, ethanol/saline, and ethanol/MC-100093 groups).
All statistical analyses were conducted using GraphPad Prism (10). Two-way (mixed) ANOVA followed by Bonferroni multiple comparison post-hoc test was performed to analyze daily ethanol intake, average daily water intake and body weight. One-way ANOVA followed by Newman-Keuls post hoc tests were used to analyze Western blot data. All statistical analyses data were reported as a p<0.05 of significance.

[2] = female P rats, vs ethanol-saline and water-saline

C[C@@H](O)[C@H]1C(=O)N[C@@H]1[C@@H](C)C(=O)N1CCN(C)CC1 [MC-100093]
Water intake ([1]; male P rats exposed to ethanol, 100 mg/kg i.p., day 5, 100 mg/kg): significant increase in water intake; also recorded: drank significantly more water than the ethanol/saline group
Body weight ([1]; male P rats, 100 mg/kg i.p. 5 days): no significant effect of Treatment by Day interaction on body weight
Ethanol intake ([1]; male P rats, 100 mg/kg i.p. days 1-5 of Week 6, vs saline vehicle, 100 mg/kg): reduced ethanol intake after 5-week drinking regimen; also recorded: significant decrease in ethanol intake; also recorded: reduced ethanol intake in P rats staring 24 hours after the first injection of the drug through the five days regimen; also recorded: robust effect in ethanol intake
xCT expression in the NAc-core (xCT; [2]): significant upregulation of xCT expression
xCT expression in the NAc-shell (xCT; [2]): significant upregulation in the expression of xCT
xCT expression in the mPFC-IL (xCT; [2]): significant upregulation in the expression of xCT
xCT expression in the mPFC-PL (xCT; [2]): significant upregulation of the expression of xCT
xCT expression in mPFC and NAc subregions (summary) (xCT; female and male P rats, vs ethanol-saline groups, 100 mg/kg): upregulated GLT-1 and xCT expression in mPFC and NAc subregions; also recorded: upregulated xCT expression in both the NAc and the mPFC subregions in male and female P rats; also recorded: increasing GLT-1 and xCT expression in the mPFC and NAc subregions
xCT expression in the NAc-core (xCT; male P rats): significantly increased the expression of xCT
xCT expression in the NAc-shell (xCT; male P rats): increased the expression of xCT
xCT expression in the mPFC-IL (xCT; male P rats): significantly increased the expression of xCT
xCT expression in the mPFC-PL (xCT; male P rats): significantly increased the expression of xCT
